{"source": "patent US20240199538A1", "about": "“Novel Chlorhexidine Salts and Related Compositions and Methods” (Colgate-Palmolive Company, priority 2022, published 2024)", "test": "CHG and CHG-SLS mixture aging study, CHX degradation products by GC-MS", "assay_type": "physicochemical", "settings": "aqueous 20% CHG solution, 60° C. oven", "description": "Sample preparation for CHX degradation analysis by using GCMS analysis: Both aged solutions are taken from the 60° C.oven. They are diluted at 1:3.5 ratios with methanol. Both solutions are filtrated with a 0.20 um PTFE filter, respectively, then they are diluted again at a 1:10 dilution ratio with methanol and then transferred into a ROBO autosampler vials for GC-MS analysis. The gas chromatography system 6890N with 5972 MS detector plus Gerstel MPS-2 autosampler (Agilenet Technologies, Santa, Clara, CA, USA) is used for detection of CHX degradation products. Separation is accomplished using GC column of HP-5MS (30 m×0.25 mm×0.25 um, length×inside diameter×film thickness, Agilent Technologies). The 1 μL sample is injected with the splitless mode. The oven temperature is initially held at 80° C.for 1 min. Thereafter the temperature is raised at 6° C./min until 300° C.and held for 2.33 min. Total running time is 40 minutes. Helium is used as the carrier gas and delivered at a constant flow rate at 1 mL/min (the pressure at 9.38 psi and velocity at 37 cm/sec). The injector temperature is set at 250° C. and the interface temperature between GC oven and MS detector is250° C. […]"}
{"smiles": "N=C(NCCCCCCNC(=N)NC(=N)Nc1ccc(Cl)cc1)NC(=N)Nc1ccc(Cl)cc1.O=C(O)[C@H](O)[C@@H](O)[C@H](O)[C@H](O)CO.O=C(O)[C@H](O)[C@@H](O)[C@H](O)[C@H](O)CO", "note": "[CHG, chlorhexidine gluconate]", "values": [{"measurement": "Peak integration for CHX degradation product at 3 weeks", "setting": "3 weeks", "value": 523490}, {"measurement": "Peak integration for CHX degradation product at 6 weeks", "setting": "6 weeks", "value": 7560037}]}
